Measured values taken from patent US20200061026A1, “METHODS AND COMPOSITIONS FOR PREVENTING VECTOR-BORNE DISEASE TRANSMISSION” (The Scripps Research Institute, priority 2016, published 2020).
pIC50: −log10 of the molar value. Like-named read-outs stand apart in the source and are kept apart here.

Legend:
[1] = Plasma stability, cynomolgus monkey; format: in vitro ADME; details: cynomolgus monkey (cy)
From the text: (§1) The stability of compounds in mouse (ms), rat (r), dog (d), cynomolgus monkey (cy), and human (hu) plasma is shown in Table 10 by the percentages of compounds remaining at two hours.

Plasma stability, rat = format: in vitro ADME; details: rat (r)
From the text: as §1

[2] = Dog pharmacokinetics (published values); cited from earlier work
[3] = Dog pharmacokinetics, single oral dose; format: in vivo; details: level at Day 45
[4] = tested on: various Anopheles and Aedes mosquitos; experiment: Membrane feeding, all Anopheles and Aedes strains tested; format: in vivo; details: read-out: IC50 values, range against all strains tested
Procedure: Isoxazoline compounds fluralaner or afoxolaner were reconstituted in 50% human serum and 50% red blood cells and administered to adult Anopheles stephensi mosquitos via standard membrane feeding. Lethality was assessed 1, 2 or 8 days after exposure. FIG. 2A represents a plot of viable Anopheles stephensi versus fluralaner concentration at each day of assessment. FIG. 2B represents a plot of viable Anopheles stephensi versus afoxolaner concentration at each day of assessment. […] The IC50 values of each compound for Anopheles death were determined by logistic regression using a least squares method to find the best fit and are shown in Table 1. IC50 values were calculated by applying a four-parameter logistic regression model using a least-squares method to find the best fit using the Graphpad Prism 5.0 software package.

Plasma stability, dog = format: in vitro ADME; details: dog (d)
From the text: as §1

Anopheles mosquitos = experiment: Lethal duration estimated by extrapolating published Beagle dog PK curves to killing concentrations
From the text: Data for fluralaner in Beagle dogs was obtained from Walther et al., Parasites & Vectors 8:508. Data from afoxolaner in Beagle dogs was obtained from Letendre et al., Veterinary Parasitology, 201, 190-197.
The lethal duration of fluralaner and afoxolaner was estimated by extrapolating pharmacokinetic curves from published studies in Beagle dogs to the killing concentrations determined by the membrane feeding studies described in Example 2. Data for fluralaner in Beagle dogs was obtained from Walther et al., Parasites & Vectors 8:508. Data from afoxolaner in Beagle dogs was obtained from Letendre et al., Veterinary Parasitology, 201, 190-197. A mathematical model was used to estimate the impact of these compounds on Anopheles stephensi mosquito survival.

Plasma stability, mouse = format: in vitro ADME; details: mouse (ms)
From the text: as §1

Brugia pahangi = Brugia pahangi microfilariae viability (Cell-Titer Glo); format: in vivo
Procedure: Microfilariae of Brugia pahangi were kept in 75 cm^2 flasks in RPMI-1640 with fetal bovine serum as described previously (Plos Negl. Trop. Dis. 2012, e1494). To test viability, 384-well plates were filled with 250 microfilariae per well. Serial dilutions of isoxazolines, ivermectin, moxidectin and equivalent vehicle concentration (0.5% DMSO) were added to the wells. Seventy two hours after treatment, viability was assessed with the Cell-Titer Glo reagent (Promega). FIG. 13A represents a plot of viable Brugia pahangi versus fluralaner, afoxolaner, or control compound (moxidectin and ivermectin) concentration as assessed at 24 hours. FIG. 13B represents a plot of viable Brugia pahangi versus fluralaner, afoxolaner, or control compound (moxidectin and ivermectin) concentration as assessed at 48 hours. FIG. 13C represents a plot of viable Brugia pahangi versus fluralaner, afoxolaner, or control compound (moxidectin and ivermectin) concentration as assessed at 72 hours.

Plasma stability, human = format: in vitro ADME; details: human (hu)
From the text: as §1

SMILES	Plasma stability % remaining @ 2 h [1]	Plasma stability % remaining @ 2 h (Plasma stability, rat)	CL (plasma clearance) [2]	Oral bioavailability [2]	V (volume of distribution) [2]	half-life [2]	Dog PK (PO) [3]	pIC50 [4]	Plasma stability % remaining @ 2 h (Plasma stability, dog)	time the concentration is above lethal level (Anopheles mosquitos; 1 mg/kg)	time the concentration is above lethal level (Anopheles mosquitos; 4 mg/kg)	Plasma stability % remaining @ 2 h (Plasma stability, mouse)	killing of Brugia pahangi (in words) (Brugia pahangi)	Plasma stability % remaining @ 2 h (Plasma stability, human)	pIC50 ([4]; twenty-four hours after the blood meal)	time the concentration is above the level lethal to Anopheles mosquitos (Anopheles mosquitos; dose of 56 mg/kg)
O=C(CNC(=O)c1ccc(C2=NO[C@](c3cc(Cl)cc(C(F)(F)F)c3)(C(F)(F)F)C2)c2ccccc12)NCC(F)(F)F (racemic) [Afoxolaner, afoxolaner]	84% (cy);	61% (r);	4.95 mL/h/kg	74%	2.68 L/kg	15.5 days	~600 nM at Day 45	6.97 to 7.05	100% (d);	43 days	72 days	83% (ms);	effective in killing Brugia pahangi	84% (hu)	–	–
Cc1cc(C2=NO[C@](c3cc(Cl)cc(Cl)c3)(C(F)(F)F)C2)ccc1C(=O)NCC(=O)NCC(F)(F)F [Fluralaner, fluralaner]	–	–	5.83 mL/h/kg	11-34%	3.1 L/kg	15.0 days	–	–	–	–	–	–	effective in killing Brugia pahangi	–	7.25 to 7.48	72 days
